This note sets out measurements from patent US5574033A, “Heterocyclic compound and cardiotonic agent containing the same as effective component” (Zenyaku Kogyo Kabushiki Kaisha, priority 1991, dated 1996).

Experiment [1] has as its system papillary muscles of a right ventricle. The experiment is described as follows: Pharmacological Test 1: contraction of isolated right ventricular papillary muscles upon electric stimulation (inotropic effect). The settings on record: 3×10^-5 M; percentage of increment of contractile force, isoprotelenol (1×10^-8 M) = 100%; 1 Hz stimulation, 30° C. On the set-up: species or system male Hartley guinea pig. The protocol: (§1) Nos. of the compounds in the pharmacological tests 1 and 2 correspond to those in Examples referred to hereinafter.
(§2) A heart was removed from a male Hartley guinea pig (having a body weight of about 400 g or so) and a right atrium and papillary muscles of a right ventricle were separated from the removed heart. These preparations were suspended in 15 ml of Magnus' bath under load of 0.5 g (papillary muscles) or 1.0 g (right atria). Contraction of papillary muscles upon electric stimulation (1 Hz, 5 msec, 1.5×threshold voltage) and spontaneous contraction of the right atria were recorded through a transducer (manufactured by Orientec, T7-8-240) by a polygraph system (manufactured by NIHONKOHDEN, RMP-6008 and WT-685G).
(§3) Krebs-Henseleit solution was used as nutritive liquid bubbled with mixed gases of 95% O2 with 5% CO2 at 30° C. The value of inotropic effect is a percentage of increment of contractile force by samples when that by isoprotelenol (1×10^-8 M) is considered to be 100%. The value of chronotropic effect is a percentage of atrial rate after the injection of samples when the atrial rate before the injection is considered to be 100%.

A further experiment has as its system right atria. In words: Pharmacological Test 1: spontaneous contraction of isolated right atria (chronotropic effect). The following applies: Cavia porcellus; 3×10^-5 M; percentage of atrial rate after injection, rate before injection = 100%; 30° C. On the set-up: species or system male Hartley guinea pig. The protocol:
as §1, §2, §3

With `O=C1CSC(C2=CCN(CC(O)c3ccc(Cl)cc3)CC2)=NN1` (centres unmarked) [Compound 13, 2-[1-[2-(4-Chlorophenyl)-2-hydroxyethyl]-1,2,5,6-tetrahydropyrid-4-yl]-4H,6H-1,3,4-thiadiazin-5-one], the “Inotropic Effect” value in experiment [1] is 72.2%. Further, in the experiment on right atria, the activity at 30 µM came to 93.4%.
In the case of `O=C1CSC(C2=CCN(CC(O)c3ccc(Cl)c(Cl)c3)CC2)=NN1` (centres unmarked) [Compound 18, 2-[1-[2-(3,4-Dichlorophenyl)-2-hydroxyethyl]-1,2,5,6-tetrahydropyrid-4-yl]-4H,6H-1,3,4-thiadiazin-5-one], in experiment [1], the “Inotropic Effect” value was determined as 52.2%. Besides, the activity at 30 µM with right atria worked out at 97.8%.
For the molecule `CC1SC(C2=CCN(CC(O)c3ccc(Cl)cc3)CC2)=NNC1=O` (centres unmarked) [Compound 14, 2-[1-[2-(4-Chlorophenyl)-2-hydroxyethyl]-1,2,5,6-tetrahydropyrid-4-yl]-6-methyl-4H,6H-1,3,4-thiadiazin-5-one], the “Inotropic Effect” value in experiment [1] came out at 26.3%. Also, the activity at 30 µM with right atria stood at 73.5%.
For the molecule `COc1ccc(C(CN2CC=C(C3=NNC(=O)CS3)CC2)OC(C)C)cc1` (centres unmarked) [Compound 71, 2-[1-[2-Isopropoxy-2-(4-methoxyphenyl)ethyl]-1,2,5,6-tetrahydropyrid-4-yl]-4H,6H-1,3,4-thiadiazin-5-one], in experiment [1], the “Inotropic Effect” value was determined as 25.3%. Further, in the experiment on right atria, the activity at 30 µM was 98.7%.
Taken in the same sequence, the figures for `O=C1CSC(C2=CCN(CC(O)c3ccc(Cl)cc3Cl)CC2)=NN1` (centres unmarked) [Compound 17, 2-[1-[2-(2,4-Dichlorophenyl)-2-hydroxyethyl]-1,2,5,6-tetrahydropyrid-4-yl]-4H,6H-1,3,4-thiadiazin-5-one] were 45.0% and 85.8%.
On the same counts, the results for `O=C1CSC(C2=CCN(CC(O)c3cccc([N+](=O)[O-])c3)CC2)=NN1` (centres unmarked) [Compound 30, 2-[1-[2-Hydroxy-2-(3-nitrophenyl)ethyl]-1,2,5,6-tetrahydropyrid-4-yl]-4H,6H-1,3,4-thiadiazin-5-one] are 113.9% and 100%.
Take `Cc1ccc(C(O)CN2CC=C(C3=NNC(=O)SC3)CC2)cc1` (centres unmarked) [Compound 43, 5-[1-[2-Hydroxy-2-(4-methylphenyl)ethyl]-1,2,5,6-tetrahydropyrid-4-yl]-3H,6H-1,3,4-thiadiazin-2-one]: the “Inotropic Effect” value in experiment [1] is 57.2%. For the same molecule, the activity at 30 µM in the experiment with right atria was found to be 85.2%.
As for `O=C1CSC(C2=CCN(CC(O)c3ccccc3[N+](=O)[O-])CC2)=NN1` (centres unmarked) [Compound 29, 2-[1-[2-Hydroxy-2-(2-nitrophenyl)ethyl]-1,2,5,6-tetrahydropyrid-4-yl]-4H,6H-1,3,4-thiadiazin-5-one], the “Inotropic Effect” value in experiment [1] stood at 79.3%. Further, the activity at 30 µM with right atria was 101%.
Taken in the same sequence, the figures for `O=C1NN=C(C2=CCN(CC(O)c3cccc(C(F)(F)F)c3)CC2)CS1` (centres unmarked) [Compound 48, 5-[1-[2-Hydroxy-2-[3-(trifluoromethyl)phenyl]ethyl]-1,2,5,6-tetrahydropyrid-4-yl]-3H,6H-1,3,4-thiadiazin-2-one] were 45.4% and 77.7%.
Regarding `O=C1CSC(C2=CCN(CC(O)c3cccc(O)c3)CC2)=NN1` (centres unmarked) [Compound 27, 2-[1-[2-Hydroxy-2-(3-hydroxyphenyl)ethyl]-1,2,5,6-tetrahydropyrid-4-yl]-4H,6H-1,3,4-thiadiazin-5-one], the “Inotropic Effect” value in experiment [1] is reported as 63.1%. Besides, the activity at 30 µM with right atria turned out to be 98.7%.
Taken in the same sequence, the figures for `O=C1CCC(C2=CCN(CC(O)c3ccccc3C(F)(F)F)CC2)=NN1` (centres unmarked) [Compound 54, 4,5-Dihydro-6-[1-[2-hydroxy-2-[2-(trifluoromethyl)phenyl]ethyl]-1,2,5,6-tetrahydropyrid-4-yl]pyridazin-3 (2H) -one] were 25.2% and 97.3%.
Consider `Cc1ccc(C(O)CN2CC=C(C3=NNC(=O)CS3)CC2)cc1` (centres unmarked) [Compound 21, 2-[1-[2-Hydroxy-2-(4-methylphenyl)ethyl]-1,2,5,6-tetrahydropyrid-4-yl]-4H,6H-1,3,4-thiadiazin-5-one], for which, in experiment [1], the “Inotropic Effect” value is on record as 92.6%. Besides, the activity at 30 µM with right atria stood at 84.5%.
Taken in the same sequence, the figures for `O=C1CNC(C2=CCN(CC(O)c3ccc([N+](=O)[O-])cc3)CC2)=NN1` (centres unmarked) [Compound 60, 4,5-Dihydro-3-[1-[2-hydroxy-2-(4-nitrophenyl)ethyl]-1,2,5,6-tetrahydropyrid-4-yl]-1,2,4-triazin-6(1H)-one] were 43.8% and 92.6%.
As to `Cc1cccc(C(O)CN2CC=C(C3=NNC(=O)CS3)CC2)c1` (centres unmarked) [Compound 20, 2-[1-[2-Hydroxy-2-(3-methylphenyl)ethyl]-1,2,5,6-tetrahydropyrid-4-yl]-4H,6H-1,3,4-thiadiazin-5-one], in experiment [1], the “Inotropic Effect” value stood at 65.7%. Further, the activity at 30 µM in the experiment with right atria was 87.5%.
On to `O=C1NN=C(c2ccncc2)CS1` [b, 5-(4-Pyridyl)-3H,6H-1,3,4-thiadiazin-2-one, reference compound], for which, in experiment [1], the “Inotropic Effect” value is recorded as 36.2%. For the same molecule, the activity at 30 µM in the experiment with right atria amounted to 117%.
For `O=C1NN=C(C2=CCN(CC(O)c3cccc(O)c3)CC2)CS1` (centres unmarked) [Compound 44, 5-[1-[2-Hydroxy-2-(3-hydroxyphenyl)ethyl]-1,2,5,6-tetrahydropyrid-4-yl]-3H,6H-1,3,4-thiadiazin-2-one], in experiment [1], the “Inotropic Effect” value came out at 39.9%. Besides, the activity at 30 µM in the experiment with right atria was found to be 101%.
Taken in the same sequence, the figures for `O=C1CCC(c2ccncc2)=NN1` [c, 4,5-Dihydro-6-(4-pyridyl)-pyridazin-3(2H)-one, reference compound] were 7.3% and 110%.
As for `Cc1ccc(C(O)CN2CC=C(C3=NNC(=O)CS3)CC2)c(C)c1` (centres unmarked) [Compound 25, 2-[1-[2-Hydroxy-2-(2,4-dimethylphenyl)ethyl]-1,2,5,6-tetrahydropyrid-4-yl]-4H,6H-1,3,4-thiadiazin-5-one], in experiment [1], the “Inotropic Effect” value is 58.5%. The activity at 30 µM in the experiment with right atria was found to be 65.2%.
Taken in the same sequence, the figures for `O=C1NN=C(C2=CCN(CC(O)c3ccc(F)cc3)CC2)CS1` (centres unmarked) [Compound 46, 5-[1-[2-(4-Fluorophenyl)-2-hydroxyethyl]-1,2,5,6-tetrahydropyrid-4-yl]-3H,6H-1,3,4-thiadiazin-2-one] were 61.9% and 81.6%.
For the molecule `O=C1CCC(C2=CCN(CC(O)c3ccc(F)cc3)CC2)=NN1` (centres unmarked) [Compound 51, 6-[1-[2-(4-Fluorophenyl)-2-hydroxyethyl]-1,2,5,6-tetrahydropyrid-4-yl]-4,5-dihydropyridazin-3 (2H)-one], the “Inotropic Effect” value in experiment [1] is 36.8%. For the same molecule, in the experiment on right atria, the activity at 30 µM was 91.4%.
Taken in the same sequence, the figures for `O=C1CSC(C2=CCN(CC(O)c3cccc(C(F)(F)F)c3)CC2)=NN1` (centres unmarked) [Compound 34, 2-[1-[2-Hydroxy-2-[3-(trifluoromethyl)phenyl]ethyl]-1,2,5,6-tetrahydropyrid-4-yl]-4H,6H-1,3,4-thiadiazin-5-one] were 49.9% and 98.1%.
`O=C1CSC(C2=CCN(CC(O)c3ccc([N+](=O)[O-])cc3)CC2)=NN1` (centres unmarked) [Compound 31, 2-[1-[2-Hydroxy-2-(4-nitrophenyl)ethyl]-1,2,5,6-tetrahydropyrid-4-yl]-4H,6H-1,3,4-thiadiazin-5-one]: the “Inotropic Effect” value in experiment [1] was found to be 74.7%. Also, the activity at 30 µM in the experiment on right atria amounted to 90.4%.
Regarding `O=C1CCC(C2=CCN(CC(O)c3ccccc3Cl)CC2)=NN1` (centres unmarked) [Compound 50, 6-[1-[2-(2-Chlorophenyl)-2-hydroxyethyl]-1,2,5,6-tetrahydropyrid-4-yl]-4,5-dihydropyridazin-3 (2H)-one], in experiment [1], the “Inotropic Effect” value is on record as 38.9%. Further, the activity at 30 µM in the experiment with right atria was determined as 98.6%.
For the molecule `COc1ccc(OC)c(C(O)CN2CC=C(C3=NNC(=O)CS3)CC2)c1` (centres unmarked) [Compound 8, 2-[1-[2-Hydroxy-2-(2,5-dimethoxyphenyl)ethyl]-1,2,5,6-tetrahydropyrid-4-yl]-4H,6H-1,3,4-thiadiazin-5-one], the “Inotropic Effect” value in experiment [1] is listed as 50.4%. Besides, the activity at 30 µM in the experiment with right atria worked out at 89%.
For the molecule `COc1ccc(C(O)CN2CC=C(C3=NNC(=O)CS3)CC2)cc1` (centres unmarked) [Compound 1, 2-[1-[2-Hydroxy-2-(4-methoxyphenyl)ethyl]-1,2,5,6-tetrahydropyrid-4-yl]-4H,6H-1,3,4-thiadiazin-5-one], in experiment [1], the “Inotropic Effect” value is on record as 55.7%. Besides, the activity at 30 µM in the experiment on right atria is 87.6%.
Take `O=C1CNC(C2=CCN(CC(O)c3ccc(Cl)cc3)CC2)=NN1` (centres unmarked) [Compound 57, 3-[1-[2-(4-Chlorophenyl)-2-hydroxyethyl]-1,2,5,6-tetrahydropyrid-4-yl]-4,5-dihydro-1,2,4-triazin-6 (1H)-one]: the “Inotropic Effect” value in experiment [1] was determined as 46.8%. Besides, the activity at 30 µM with right atria came out at 94.9%.
`N#Cc1ccc(C(O)CN2CC=C(C3=NNC(=O)SC3)CC2)cc1` (centres unmarked) [Compound 47, 5-[1-[2-(4-Cyanophenyl)-2-hydroxyethyl]-1,2,5,6-tetrahydropyrid-4-yl]-3H,6H-1,3,4-thiadiazin-2-one]: in experiment [1], the “Inotropic Effect” value stood at 81.4%. In the experiment with right atria, the activity at 30 µM worked out at 78.2%.
Turning to `O=C1CNC(c2ccncc2)=NN1` [d, 4,5-Dihydro-3-(4-pyridyl)-1,2,4-triazin-6(1H)-one, reference compound], the “Inotropic Effect” value in experiment [1] is reported as 4.6%. For the same molecule, the activity at 30 µM in the experiment with right atria is 112%.
